Laboratory results reported in paper PMC7962978, “PSMA-D4 Radioligand for Targeted Therapy of Prostate Cancer: Synthesis, Characteristics and Preliminary Assessment of Biological Properties” (International Journal of Molecular Sciences, 2021).
Values joined by “and” are separate entries in the source; they are usually repeats but may differ in a detail not shown here. Identical values can stand only once.

Experiments:
[1] = Blood pharmacokinetics, one-phase decay model, LNCaP tumor-bearing mice; type: in vivo; details: i.v.
Description: The pharmacokinetic analysis of the [^47Sc]Sc-PSMA-D4 was based on the curves of the %ID g^−1 accumulated in the blood. The pharmacokinetic parameters were determined according to a one-phase decay model. The following parameters were used: K (rate constant) and half-life calculated as ln(2)/K.
For blood activity data, a one-phase exponential decay model was used to model the percentage of remaining activity (%ID g^−1) as a time post-injection function.

LNCaP tumor-bearing mice = experiment: Ex vivo biodistribution in mice bearing LNCaP tumor
Description: An experimental tumor murine model was induced using LNCaP cell, which grew to 80–90% confluence before trypsinization and formulation in Matrixgel™ Basement Membrane Matrix (Bedford, MA, USA) for implantation into mice. The mice were subcutaneously injected in the shoulder with 200 mcL bolus containing a suspension of 10^6 freshly harvested cell line LNCaP in Matrixgel™. This procedure was performed under anaesthesia with 2% isoflurane. The animals were kept under pathogen-free condition, and experiments were performed 2–3 weeks later when a tumor reached a volume of approximately 150 ± 60 mm^3. Then, the animals were randomized into two groups (25 mice per group, five mice per time point): Group 1, treated with a single intravenous injection of [^90Y]Y-PSMA-D4 (0.1 mL, 0.1 mcg, 15.5 MBq, SA 16.7 GBq mg^−1 = 17.2 GBq mcmol^−1) and Group 2, treated with a single intravenous injection of [^47Sc]Sc-PSMA-D4 (0.1 mL, 0.19 mcg, 10 MBq, SA 4.8 GBq mg^−1 = 4.57 GBq mcmol^−1).
At 1, 2, 4, 6, 24, and 48 h after injection, the animals were euthanized by cervical dislocation and dissected. Selected organs and tissues were assayed for their radioactivity and weighted. The physiological distribution was calculated and expressed in terms of the percentage of administrated radioactivity found in each of the selected organs or tissues per gram (%ID g^−1).
Results are provided as mean ± SD. The results of physiological distribution are presented as a percentage of the dose administered per gram of tissue (%ID g^−1) as average value with standard deviation (%ID g^−1; mean ± standard deviation (SD)) with n representing the number of animals per group. Data were statistically analyzed using GraphPad Prism version 8.0.0 for Window.

PSMA antigen = molecular target: T1, PSMA antigen (Homo sapiens, UniProt Q04609); experiment: Saturation radioligand binding assay on LNCaP (PSMA positive) and PC3 (PSMA negative) cell membranes
T1 construct: PSMA antigen expressed on LNCaP cell membranes; endogenous in cells; host or cells: LNCaP cell membranes (PC3 membranes as PSMA-negative control)
Description: The equilibrium constant (KD) was determined by a saturation binding experiment performed in PSMA positive LNCaP and PSMA negative PC3 cell membranes isolated according to the procedure developed by Fichna et al.. The 50 mcL of LNCaP and PC3 cell membranes were seeded on special MultiScreen™ 96 well filter plates (Merck, Warsaw, Poland) and incubated for 2 h with increasing concentration of [^177Lu]Lu-PSMA-D4, [^90Y]Y-PSMA-D4, and […] (0.016–194 nM) at 37 °C. After incubation, the unbound radiocomplexes were filtered under vacuum, and the membranes were washed twice using PBS. The filters containing membranes with the attached radiotracer were extruded into tubes using MultiScreen Multile Punch (Merck). The number of associated inhibitors was determined by measuring the radioactivity of squeezed filters using Wallac Wizard 1470 γ counter. The KD and Bmax were calculated by nonlinear regression using the GraphPad Prism statistic program.

T1 sequence (Q04609 whole entry): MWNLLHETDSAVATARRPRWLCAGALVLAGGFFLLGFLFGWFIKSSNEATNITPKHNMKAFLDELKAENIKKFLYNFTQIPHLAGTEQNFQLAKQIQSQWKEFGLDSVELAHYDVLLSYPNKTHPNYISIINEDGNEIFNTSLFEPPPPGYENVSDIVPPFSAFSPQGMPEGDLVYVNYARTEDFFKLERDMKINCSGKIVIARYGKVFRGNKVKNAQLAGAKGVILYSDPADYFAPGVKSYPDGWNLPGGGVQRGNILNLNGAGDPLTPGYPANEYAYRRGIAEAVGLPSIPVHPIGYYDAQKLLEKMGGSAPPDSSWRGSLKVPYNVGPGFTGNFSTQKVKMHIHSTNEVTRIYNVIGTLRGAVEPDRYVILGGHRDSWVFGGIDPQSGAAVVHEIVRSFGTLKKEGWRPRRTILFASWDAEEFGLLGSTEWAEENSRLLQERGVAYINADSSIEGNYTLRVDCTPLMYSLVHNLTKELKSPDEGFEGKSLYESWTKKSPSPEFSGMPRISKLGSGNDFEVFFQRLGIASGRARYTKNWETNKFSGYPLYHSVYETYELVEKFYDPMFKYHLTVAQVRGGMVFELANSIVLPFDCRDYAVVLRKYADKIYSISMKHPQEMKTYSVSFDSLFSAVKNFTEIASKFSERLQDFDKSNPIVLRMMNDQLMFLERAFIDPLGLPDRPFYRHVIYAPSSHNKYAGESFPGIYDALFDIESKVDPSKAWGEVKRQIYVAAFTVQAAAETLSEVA

blood half-life [1]: 10.4 min and 10.2 min
T/B (ratio tumor to blood) (LNCaP tumor-bearing mice; 1 h after i.v. injection): 31.6
T/K (ratio tumor to kidneys) (LNCaP tumor-bearing mice; 1 h after i.v. injection): 1.0
T/M (ratio tumor to muscle) (LNCaP tumor-bearing mice; 1 h after i.v. injection): 135.2
blood (LNCaP tumor-bearing mice; 1 h after i.v. injection): 0.29 ± 0.08 %ID g^−1
kidneys (LNCaP tumor-bearing mice; 1 h after i.v. injection): 9.46 ± 1.44 %ID g^−1
large intestine (LNCaP tumor-bearing mice; 1 h after i.v. injection): 0.09 ± 0.03 %ID g^−1
liver (LNCaP tumor-bearing mice; 1 h after i.v. injection): 0.13 ± 0.02 %ID g^−1
muscle (LNCaP tumor-bearing mice; 1 h after i.v. injection): 0.10 ± 0.06 %ID g^−1
small intestine (LNCaP tumor-bearing mice; 1 h after i.v. injection): 0.35 ± 0.19 %ID g^−1
spleen (LNCaP tumor-bearing mice; 1 h after i.v. injection): 0.52 ± 0.19 %ID g^−1
stomach (LNCaP tumor-bearing mice; 1 h after i.v. injection): 0.23 ± 0.09 %ID g^−1
tumor (LNCaP tumor-bearing mice; 1 h after i.v. injection): 9.24 ± 5.13 %ID g^−1
urine (LNCaP tumor-bearing mice; 1 h after i.v. injection): 89.23 ± 2.63 %ID
T/B (ratio tumor to blood) (LNCaP tumor-bearing mice; 4 h after i.v. injection): 120.9
T/K (ratio tumor to kidneys) (LNCaP tumor-bearing mice; 4 h after i.v. injection): 4.3
T/M (ratio tumor to muscle) (LNCaP tumor-bearing mice; 4 h after i.v. injection): 24.3
blood (LNCaP tumor-bearing mice; 4 h after i.v. injection): 0.08 ± 0.04 %ID g^−1
kidneys (LNCaP tumor-bearing mice; 4 h after i.v. injection): 2.16 ± 0.86 %ID g^−1
large intestine (LNCaP tumor-bearing mice; 4 h after i.v. injection): 0.70 ± 0.48 %ID g^−1
liver (LNCaP tumor-bearing mice; 4 h after i.v. injection): 0.08 ± 0.04 %ID g^−1
muscle (LNCaP tumor-bearing mice; 4 h after i.v. injection): 0.39 ± 0.17 %ID g^−1
small intestine (LNCaP tumor-bearing mice; 4 h after i.v. injection): 0.41 ± 0.30 %ID g^−1
spleen (LNCaP tumor-bearing mice; 4 h after i.v. injection): 0.57 ± 0.31 %ID g^−1
stomach (LNCaP tumor-bearing mice; 4 h after i.v. injection): 0.39 ± 0.17 %ID g^−1
tumor (LNCaP tumor-bearing mice; 4 h after i.v. injection): 9.22 ± 2.21 %ID g^−1
urine (LNCaP tumor-bearing mice; 4 h after i.v. injection): 93.42 ± 2.07 %ID
T/B (ratio tumor to blood) (LNCaP tumor-bearing mice; 6 h after i.v. injection): 207.6
T/K (ratio tumor to kidneys) (LNCaP tumor-bearing mice; 6 h after i.v. injection): 6.1
T/M (ratio tumor to muscle) (LNCaP tumor-bearing mice; 6 h after i.v. injection): 251.0
blood (LNCaP tumor-bearing mice; 6 h after i.v. injection): 0.04 ± 0.01 %ID g^−1
kidneys (LNCaP tumor-bearing mice; 6 h after i.v. injection): 1.42 ± 0.28 %ID g^−1
large intestine (LNCaP tumor-bearing mice; 6 h after i.v. injection): 0.69 ± 0.17 %ID g^−1
liver (LNCaP tumor-bearing mice; 6 h after i.v. injection): 0.06 ± 0.01 %ID g^−1
muscle (LNCaP tumor-bearing mice; 6 h after i.v. injection): 0.03 ± 0.02 %ID g^−1
small intestine (LNCaP tumor-bearing mice; 6 h after i.v. injection): 0.11 ± 0.07 %ID g^−1
spleen (LNCaP tumor-bearing mice; 6 h after i.v. injection): 0.08 ± 0.04 %ID g^−1
stomach (LNCaP tumor-bearing mice; 6 h after i.v. injection): 0.08 ± 0.09 %ID g^−1
tumor (LNCaP tumor-bearing mice; 6 h after i.v. injection): 8.65 ± 3.19 %ID g^−1
urine (LNCaP tumor-bearing mice; 6 h after i.v. injection): 94.89 ± 1.34 %ID
T/B (ratio tumor to blood) (LNCaP tumor-bearing mice; 24 h after i.v. injection): 467.3
T/K (ratio tumor to kidneys) (LNCaP tumor-bearing mice; 24 h after i.v. injection): 18.4
T/M (ratio tumor to muscle) (LNCaP tumor-bearing mice; 24 h after i.v. injection): 229.0
blood (LNCaP tumor-bearing mice; 24 h after i.v. injection): 0.01 ± 0.01 %ID g^−1
kidneys (LNCaP tumor-bearing mice; 24 h after i.v. injection): 0.29 ± 0.09 %ID g^−1
large intestine (LNCaP tumor-bearing mice; 24 h after i.v. injection): 0.12 ± 0.12 %ID g^−1
liver (LNCaP tumor-bearing mice; 24 h after i.v. injection): 0.03 ± 0.01 %ID g^−1
muscle (LNCaP tumor-bearing mice; 24 h after i.v. injection): 0.02 ± 0.02 %ID g^−1
small intestine (LNCaP tumor-bearing mice; 24 h after i.v. injection): 0.34 ± 0.18 %ID g^−1
spleen (LNCaP tumor-bearing mice; 24 h after i.v. injection): 0.04 ± 0.01 %ID g^−1
stomach (LNCaP tumor-bearing mice; 24 h after i.v. injection): 0.05 ± 0.06 %ID g^−1
tumor (LNCaP tumor-bearing mice; 24 h after i.v. injection): 5.28 ± 3.01 %ID g^−1
urine (LNCaP tumor-bearing mice; 24 h after i.v. injection): 97.89 ± 1.22 %ID
T/B (ratio tumor to blood) (LNCaP tumor-bearing mice; 48 h after i.v. injection): 78.8
T/K (ratio tumor to kidneys) (LNCaP tumor-bearing mice; 48 h after i.v. injection): 16.0
T/M (ratio tumor to muscle) (LNCaP tumor-bearing mice; 48 h after i.v. injection): 66.7
blood (LNCaP tumor-bearing mice; 48 h after i.v. injection): 0.05 ± 0.03 %ID g^−1
kidneys (LNCaP tumor-bearing mice; 48 h after i.v. injection): 0.26 ± 0.14 %ID g^−1
large intestine (LNCaP tumor-bearing mice; 48 h after i.v. injection): 1.63 ± 0.31 %ID g^−1
liver (LNCaP tumor-bearing mice; 48 h after i.v. injection): 0.04 ± 0.01 %ID g^−1
muscle (LNCaP tumor-bearing mice; 48 h after i.v. injection): 0.06 ± 0.06 %ID g^−1
small intestine (LNCaP tumor-bearing mice; 48 h after i.v. injection): 0.45 ± 0.13 %ID g^−1
spleen (LNCaP tumor-bearing mice; 48 h after i.v. injection): 0.10 ± 0.09 %ID g^−1
stomach (LNCaP tumor-bearing mice; 48 h after i.v. injection): 0.03 ± 0.04 %ID g^−1
tumor (LNCaP tumor-bearing mice; 48 h after i.v. injection): 4.11 ± 1.08 %ID g^−1
urine (LNCaP tumor-bearing mice; 48 h after i.v. injection): 95.37 ± 1.89 %ID
Kd (PSMA antigen; LNCaP cell membranes, 2 h, 37 °C): 3.4 ± 2 nM
Specific Binding (PSMA antigen; total binding on LNCaP minus non-specific binding on PC3 membranes): 98.8 ± 0.9%
SMILES: O=C([O-])CN1CCN(CC(=O)[O-])CCN(CC(=O)NCC2CCC(C(=O)NC(Cc3c[nH]c4ccccc34)C(=O)NCCCCC(NC(=O)NC(CCC(=O)O)C(=O)O)C(=O)O)CC2)CCN(CC(=O)[O-])CC1.[47Sc+3] (centres unmarked) [[^47Sc]Sc-PSMA-D4]
